Tests used:
[1] = tested on: Beet Armyworm (Spodoptera exigua, LAPHEG); assay: Bioassay on Beet Armyworm (BAW), 128-well diet tray assay; assay type: in vivo; conditions: 168 h, 50 μg/cm^2 on artificial diet, second instar larvae, five to seven days, 25° C., read-out: BAW % Control (or Mortality) rating
Protocol: (§1) Example A: Bioassays on Beet Armyworm (Spodoptera Exigua, LAPHEG) (“BAW”), Corn Earworm (Helicoverpa zea, HELIZE) (“CEW”), and Cabbage Looper (Trichoplusia ni, TRIPNI) (“CL”)
(§2) Certain molecules disclosed in this document were tested against BAW, CEW, and CL using procedures described in the following examples. In the reporting of the results, the “BAW, CEW, & CL Rating Table” was used (See Table Section).
Bioassays on BAW were conducted using a 128-well diet tray assay. One to five second instar BAW larvae were placed in each well (3 mL) of the diet tray that had been previously filled with 1 mL of artificial diet to which 50 μg/cm^2 of the test molecule (dissolved in 50 μL of 90:10 acetone-water mixture) had been applied (to each of eight wells) and then allowed to dry. Trays were covered with a clear self-adhesive cover and held at 25° C., 14:10 light-dark for five to seven days. Percent mortality was recorded for the larvae in each well; activity in the eight wells was then averaged. The results are indicated in the table entitled “Table ABC: Biological Results” (See Table Section).
(§3) Bioassays on BAW and CL were conducted according to the procedures outlined in Example A: Bioassays on Beet Armyworm (“BAW”) and Cabbage Looper (“CL”) using the indicated concentrations.

[2] = tested on: Cabbage Looper (Trichoplusia ni, TRIPNI); assay: Bioassay on Cabbage Looper (CL), 128-well diet tray assay; assay type: in vivo; conditions: 168 h, 50 μg/cm^2 on artificial diet, second instar larvae, five to seven days, 25° C., read-out: CL % Control (or Mortality) rating
Protocol: as §1, §2
Bioassays on CL were conducted using a 128-well diet tray assay. One to five second instar CL larvae were placed in each well (3 mL) of the diet tray that had been previously filled with 1 mL of artificial diet to which 50 μg/cm^2 of the test molecule (dissolved in 50 μL of 90:10 acetone-water mixture) had been applied (to each of eight wells) and then allowed to dry. Trays were covered with a clear self-adhesive cover and held at 25° C., 14:10 light-dark for five to seven days. Percent mortality was recorded for the larvae in each well; activity in the eight wells was then averaged. The results are indicated in the table entitled “Table ABC: Biological Results” (See Table Section).
as §3

SMILES | mortality at 50 µg/cm2 [1] | mortality at 50 µg/cm2 [2]
CCC(F)(F)C(/C=C(\F)c1ccc(C(=O)N[C@H](C)CSCC(F)(F)F)c(C(F)(F)F)c1)c1cc(Cl)c(Cl)c(Cl)c1 (stereo partly drawn) [F39, 4-((Z)-1,4,4-Trifluoro-3-(3,4,5-trichlorophenyl)hex-1-en-1-yl)-N—((R)-1-((2,2,2-trifluoroethyl)thio)propan-2-yl)-2-(trifluoromethyl)benzamide] | 50 to 100% | 50 to 100%
CCSC[C@@H](C)NC(=O)c1ccc(/C(F)=C/C(c2cc(Br)cc(Br)c2)C(F)(F)F)cc1C(F)(F)F (stereo partly drawn) [F40, 4-((Z)-3-(3,5-Dibromophenyl)-1,4,4,4-tetrafluorobut-1-en-1-yl)-N—((R)-1-(ethylthio)propan-2-yl)-2-(trifluoromethyl)benzamide] | 50 to 100% | 50 to 100%
CCSC[C@@H](C)NC(=O)c1ccc(/C(F)=C/C(c2cc(Cl)c(F)c(Cl)c2)C(F)(F)F)cc1C(F)(F)F (stereo partly drawn) [F41, 4-((Z)-3-(3,5-Dichloro-4-fluorophenyl)-1,4,4,4-tetrafluorobut-1-en-1-yl)-N—((R)-1-(ethylthio)propan-2-yl)-2-(trifluoromethyl)benzamide] | 50 to 100% | 50 to 100%
C=Cc1c(Cl)cc(C(/C=C(\F)c2ccc(C(=O)N[C@H](C)CSCC)c(C(F)(F)F)c2)C(F)(F)F)cc1Cl (stereo partly drawn) [F47, 4-((Z)-3-(3,5-Dichloro-4-vinylphenyl)-1,4,4,4-tetrafluorobut-1-en-1-yl)-N—((R)-1-(ethylthio)propan-2-yl)-2-(trifluoromethyl)benzamide] | 50 to 100% | 50 to 100%
CCSC[C@@H](C)NC(=O)c1ccc(/C(F)=C/C(c2cc(Cl)c(Br)c(Cl)c2)C(F)(F)F)cc1C(F)(F)F (some centres unmarked) [F48] | 50 to 100% | 50 to 100%
O=C(NCC[S+]([O-])CC(F)(F)F)c1ccc(/C(F)=C/C(c2cc(Cl)c(Cl)c(Cl)c2)C(F)(F)F)cc1C(F)(F)F (centres unmarked) [F50, (Z)-4-(1,4,4,4-tetrafluoro-3-(3,4,5-trichlorophenyl)but-1-en-1-yl)-N-(2-((2,2,2-trifluoroethyl)sulfinyl)ethyl)-2-(trifluoromethyl)benzamide] | 50 to 100% | 50 to 100%
O=C(NCCSCC(F)(F)F)c1ccc(/C(F)=C/C(c2cc(Cl)c(Cl)c(Cl)c2)C(F)(F)F)cc1C(F)(F)F (centres unmarked) [F51, (Z)-4-(1,4,4,4-tetrafluoro-3-(3,4,5-trichlorophenyl)but-1-en-1-yl)-N-(2-((2,2,2-trifluoroethyl)thio)ethyl)-2-(trifluoromethyl)benzamide] | 50 to 100% | 50 to 100%
C[C@H](CSCC(F)(F)F)NC(=O)c1ccc(/C(F)=C/C(c2ccc(Cl)c(Cl)c2)C(C)(F)F)cc1C(F)(F)F (stereo partly drawn) [F57, 4-((Z)-3-(3,4-Dichlorophenyl)-1,4,4-trifluoropent-1-en-1-yl)-N—((R)-1-((2,2,2-trifluoroethyl)thio)propan-2-yl)-2-(trifluoromethyl)benzamide] | 50 to 100% | 50 to 100%
C[C@H](CSCC(F)(F)F)NC(=O)c1ccc(/C(F)=C/C(c2ccc(Cl)c(Cl)c2)C(F)(F)F)cc1Br (stereo partly drawn) [F58, 2-Bromo-4-((Z)-3-(3,4-dichlorophenyl)-1,4,4,4-tetrafluorobut-1-en-1-yl)-N—((R)-1-((2,2,2-trifluoroethyl)thio)propan-2-yl)benzamide] | 50 to 100% | 50 to 100%
C[C@H](CSCC(F)(F)F)NC(=O)c1ccc(/C(F)=C/C(c2ccc(Br)c(Br)c2)C(F)(F)F)cc1C(F)(F)F (some centres unmarked) [F62] | 50 to 100% | 50 to 100%
CCS(=O)(=O)C[C@@H](C)NC(=O)c1ccc(/C(F)=C/C(c2cc(Cl)c(Br)c(Cl)c2)C(F)(F)F)cc1C(F)(F)F (stereo partly drawn) [F63, 4-((Z)-3-(4-Bromo-3,5-chlorophenyl)-1,4,4,4-tetrafluorobut-1-en-1-yl)-N—((R)-1-(ethylsulfonyl)propan-2-yl)-2-(trifluoromethyl)benzamide] | 50 to 100% | 50 to 100%
C[C@H](CSCC(F)(F)F)NC(=O)c1ccc(/C(F)=C/C(c2cc(Cl)cc(Br)c2)C(F)(F)F)cc1C(F)(F)F (stereo partly drawn) [F64, 4-((Z)-3-(3-Bromo-5-chlorophenyl)-1,4,4,4-tetrafluorobut-1-en-1-yl)-N—((R)-1-((2,2,2-trifluoroethyl)thio)propan-2-yl)-2-(trifluoromethyl)benzamide] | 50 to 100% | 50 to 100%
C[C@H](C[S+]([O-])CC(F)(F)F)NC(=O)c1ccc(/C(F)=C/C(c2ccc(Cl)c(Cl)c2)C(F)(F)F)cc1Br (stereo partly drawn) [F66, 2-Bromo-4-((Z)-3-(3,4-dichlorophenyl)-1,4,4,4-tetrafluorobut-1-en-1-yl)-N-((2R)-1-((2,2,2-trifluoroethyl)sulfinyl)propan-2-yl)benzamide] | 50 to 100% | 50 to 100%
C[C@H](CS(=O)(=O)CC(F)(F)F)NC(=O)c1ccc(/C(F)=C/C(c2ccc(Cl)c(Cl)c2)C(F)(F)F)cc1Br (some centres unmarked) [F67] | 50 to 100% | 50 to 100%
C[C@H](CS(=O)(=O)CC(F)(F)F)NC(=O)c1ccc(/C(F)=C/C(c2cc(Cl)c(Cl)c(C(F)F)c2)C(F)(F)F)cc1C(F)(F)F (stereo partly drawn) [F70, 4-((Z)-3-(3,4-dichloro-5-(difluoromethyl)phenyl)-1,4,4,4-tetrafluorobut-1-en-1-yl)-N—((R)-1-((2,2,2-trifluoroethyl)sulfonyl)propan-2-yl)-2-(trifluoromethyl)benzamide] | 50 to 100% | 50 to 100%
C[C@H](CS(=O)(=O)CC(F)(F)F)NC(=O)c1ccc(/C(F)=C/C(c2cc(F)c(Cl)c(C(F)(F)F)c2)C(F)(F)F)cc1C(F)(F)F (stereo partly drawn) [F71, 4-((Z)-3-(4-Chloro-3-fluoro-5-(trifluoromethyl)phenyl)-1,4,4,4-tetrafluorobut-1-en-1-yl)-N—((R)-1-((2,2,2-trifluoroethyl)sulfonyl)propan-2-yl)-2-(trifluoromethyl)benzamide] | 50 to 100% | 50 to 100%
C[C@H](CS(=O)(=O)CC(F)(F)F)NC(=O)c1ccc(/C(F)=C/[C@H](c2cc(Cl)c(Cl)c(Cl)c2)C(F)(F)F)cc1C(F)(F)F [F72, 4-((R,Z)-1,4,4,4-tetrafluoro-3-(3,4,5-trichlorophenyl)but-1-en-1-yl)-N—((R)-1-((2,2,2-trifluoroethyl)sulfonyl)propan-2-yl)-2-(trifluoromethyl)benzamide] | 50 to 100% | 50 to 100%
C=Cc1cc(C(/C=C(\F)c2ccc(C(=O)N[C@H](C)CS(=O)(=O)CC(F)(F)F)c(C(F)(F)F)c2)C(F)(F)F)cc(Cl)c1Cl (stereo partly drawn) [F73, 4-((Z)-3-(3,4-dichloro-5-vinylphenyl)-1,4,4,4-tetrafluorobut-1-en-1-yl)-N—((R)-1-((2,2,2-trifluoroethyl)sulfonyl)propan-2-yl)-2-(trifluoromethyl)benzamide] | 50 to 100% | 50 to 100%
CSC[C@@H](C)NC(=O)c1ccc(/C(F)=C/C(c2cc(Cl)c(Cl)c(Cl)c2)C(F)(F)F)cc1C(F)(F)F (stereo partly drawn) [F75, N—((R)-1-(Methylthio)propan-2-yl)-4-((Z)-1,4,4,4-tetrafluoro-3-(3,4,5-trichlorophenyl)but-1-en-1-yl)-2-(trifluoromethyl)benzamide] | 50 to 100% | 50 to 100%
C[C@H](CS(=O)(=O)CC(F)(F)F)NC(=O)c1ccc(/C(F)=C/C(c2ccc(F)c(C(F)(F)F)c2)C(F)(F)F)cc1C(F)(F)F (stereo partly drawn) [F77, 4-((Z)-1,4,4,4-Tetrafluoro-3-(4-fluoro-3-(trifluoromethyl)phenyl)but-1-en-1-yl)-N—((R)-1-((2,2,2-trifluoroethyl)sulfonyl)propan-2-yl)-2-(trifluoromethyl)benzamide] | 50 to 100% | 50 to 100%
C[C@H](CS(=O)(=O)CC(F)(F)F)NC(=O)c1ccc(/C(F)=C/C(c2ccc(Cl)c(Br)c2)C(F)(F)F)cc1C(F)(F)F (stereo partly drawn) [F79, 4-((Z)-3-(3-Bromo-4-chlorophenyl)-1,4,4,4-tetrafluorobut-1-en-1-yl)-N—((R)-1-((2,2,2-trifluoroethyl)sulfonyl)propan-2-yl)-2-(trifluoromethyl)benzamide] | 50 to 100% | 50 to 100%
C[C@H](CS(=O)(=O)CC(F)(F)F)NC(=O)c1ccc(/C(F)=C/C(c2cc(Cl)c(Cl)c(Br)c2)C(F)(F)F)cc1C(F)(F)F (stereo partly drawn) [F80, 4-((Z)-3-(3-Bromo-4,5-dichlorophenyl)-1,4,4,4-tetrafluorobut-1-en-1-yl)-N—((R)-1-((2,2,2-trifluoroethyl)sulfonyl)propan-2-yl)-2-(trifluoromethyl)benzamide] | 50 to 100% | 50 to 100%
